Data from patent publication US20240115557A1, “INHIBITORS OF RNA-GUIDED NUCLEASES AND USES THEREOF” (The Brigham and Women's Hospital, Inc., priority 2022, published 2024).

Target: SpCas9 (Streptococcus pyogenes serotype M1, UniProt Q99ZW2)
Assay: eGFP disruption assay, SpCas9, U2OS.eGFP.PEST cells
Type: cell-based
Details: for Normalized Z rep1 / Z score Rep1: replicate 1; for SpCas9 eGFP disruption Rep1: replicate 1, raw readout; for Normalized Z rep2 / Z socre Rep2: replicate 2; for SpCas9 eGFP disruption Rep2: replicate 2, raw readout
Procedure, shortened: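 Rescue of eGFP signal lost through Cas9-induced NHEJ indels serves as the inhibition read-out, after 24 h compound exposure (20 μM for hits, variable for dose-response). Editing was delivered by nucleofection into U2OS.eGFP.PEST cells as SpCas9/gRNA plasmids (300/30 ng) or RNP (10/12 pmol). Toxic and autofluorescent compounds were excluded.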

[1] = Cas9 = lower control, Ctrl = upper control
[2] = normalized, lower control about 0, upper control about 1

Sequence of SpCas9 (Q99ZW2 whole entry): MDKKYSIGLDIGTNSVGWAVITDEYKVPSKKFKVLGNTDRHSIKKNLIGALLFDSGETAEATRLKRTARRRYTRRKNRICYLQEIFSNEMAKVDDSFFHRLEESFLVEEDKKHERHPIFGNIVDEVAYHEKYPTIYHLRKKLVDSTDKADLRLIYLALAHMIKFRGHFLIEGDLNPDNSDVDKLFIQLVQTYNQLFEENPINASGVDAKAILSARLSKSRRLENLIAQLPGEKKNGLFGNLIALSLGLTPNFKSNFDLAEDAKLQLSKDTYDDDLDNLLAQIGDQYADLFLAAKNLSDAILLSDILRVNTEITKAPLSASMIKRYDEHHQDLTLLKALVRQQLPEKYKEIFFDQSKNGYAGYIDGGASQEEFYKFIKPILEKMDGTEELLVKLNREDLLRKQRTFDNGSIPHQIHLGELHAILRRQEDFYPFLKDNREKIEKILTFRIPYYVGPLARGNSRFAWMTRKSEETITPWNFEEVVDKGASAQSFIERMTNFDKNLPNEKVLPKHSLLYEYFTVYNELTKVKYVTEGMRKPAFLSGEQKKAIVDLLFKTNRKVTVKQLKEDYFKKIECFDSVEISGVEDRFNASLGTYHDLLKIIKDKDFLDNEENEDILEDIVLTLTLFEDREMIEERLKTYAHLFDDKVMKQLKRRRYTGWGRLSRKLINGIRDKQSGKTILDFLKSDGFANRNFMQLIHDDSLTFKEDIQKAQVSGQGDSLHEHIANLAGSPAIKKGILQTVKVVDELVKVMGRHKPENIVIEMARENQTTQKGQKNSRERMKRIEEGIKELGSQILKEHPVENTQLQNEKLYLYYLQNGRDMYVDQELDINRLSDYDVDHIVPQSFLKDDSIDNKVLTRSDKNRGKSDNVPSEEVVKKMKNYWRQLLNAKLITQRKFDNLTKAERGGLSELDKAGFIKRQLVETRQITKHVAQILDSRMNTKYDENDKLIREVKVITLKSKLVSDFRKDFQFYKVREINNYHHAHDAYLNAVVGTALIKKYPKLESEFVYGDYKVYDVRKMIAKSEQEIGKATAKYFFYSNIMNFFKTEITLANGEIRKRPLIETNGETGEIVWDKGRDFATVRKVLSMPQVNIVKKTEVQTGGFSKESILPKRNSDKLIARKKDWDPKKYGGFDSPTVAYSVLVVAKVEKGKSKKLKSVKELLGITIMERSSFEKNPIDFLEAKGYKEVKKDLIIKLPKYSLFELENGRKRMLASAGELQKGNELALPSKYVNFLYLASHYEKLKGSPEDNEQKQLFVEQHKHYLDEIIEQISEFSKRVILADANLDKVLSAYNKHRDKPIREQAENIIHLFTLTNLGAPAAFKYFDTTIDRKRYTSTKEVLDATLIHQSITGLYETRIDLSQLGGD

| Structure (SMILES) | Normalized Z rep1 | Z score Rep1 | SpCas9 eGFP disruption Rep1 | Normalized Z rep2 | Z socre Rep2 | SpCas9 eGFP disruption Rep2 | SpCas9 eGFP disruption Rep1 [1] | Normalized Z rep1 [2] | SpCas9 eGFP disruption Rep2 [1] | Normalized Z rep2 [2] |
| --- | --- | --- | --- | --- | --- | --- | --- | --- | --- | --- |
| c1ccc(Cc2nn3c(-c4cccnc4)nnc3s2)cc1 [Compound D727-0066] | −0.11 | −0.78 | 64.43 | −0.15 | −1.42 | 58.807 | – | – | – | – |
| Cc1nc2ccccc2n1Cc1nnc2n1N=C(N)CS2 [Compound D727-0339] | −0.25 | −1.83 | 60.982 | −0.15 | −1.41 | 58.84 | – | – | – | – |
| Cc1ccccc1OCc1nn2c(C(C)C)nnc2s1 [Compound D727-0350] | −0.47 | −3.41 | 55.746 | −0.04 | −0.36 | 61.985 | – | – | – | – |
| Cc1ccccc1OCc1nn2c(C(C)(C)C)nnc2s1 [Compound D727-0351] | – | 0.29 | – | – | 1.32 | – | 67.967 | 0.04 | 67.06 | 0.14 |
| Brc1ccc(OCc2nn3c(-c4ccccn4)nnc3s2)cc1 [Compound D727-0522] | −0.12 | −0.85 | 64.203 | 0.08 | 0.79 | 65.458 | – | – | – | – |
| Fc1ccc(OCc2nn3c(-c4ccccn4)nnc3s2)cc1 [Compound D727-0525] | −0.49 | −3.56 | 55.263 | −0.39 | −3.59 | 52.257 | – | – | – | – |
| NC(=O)c1c(NC(=O)COCc2cc(-c3ccc4c(c3)OCO4)on2)sc2c1CCCC2 [Compound E613-0091] | −0.19 | −1.37 | 62.484 | −0.32 | −2.94 | 54.219 | – | – | – | – |
| NS(=O)(=O)c1ccc(CCNC(=O)C2=Cc3sc4c(c3CS2)CCCC4)cc1 [Compound E722-2588] | −0.16 | −1.14 | 63.246 | 0.13 | 1.22 | 66.773 | – | – | – | – |
| NC(=O)c1sc(=S)n2c1[nH]c(=O)c1ccc(Cl)cc12 [Compound F083-0067] | −0.09 | −0.66 | 64.842 | −0.23 | −2.14 | 56.626 | – | – | – | – |
| CCCN1CCN(c2ccc(C(=O)O)cc2NC(=O)c2ccccc2Cl)CC1 [Compound F086-0004] | −0.17 | −1.20 | 63.051 | −0.29 | −2.70 | 54.937 | – | – | – | – |
| CC(C)NC(=O)CN1CCN(c2ccc(C(=O)O)cc2NC(=O)c2ccccc2Cl)CC1 [Compound F086-0028] | −0.55 | −3.98 | 53.848 | −0.21 | −1.95 | 57.208 | – | – | – | – |
| COCCCNC(=O)CN1CCN(c2ccc(C(=O)O)cc2NC(=O)c2ccccc2Cl)CC1 [Compound F086-0033] | −0.26 | −1.88 | 60.787 | −0.24 | −2.23 | 56.359 | – | – | – | – |
| O=C(O)c1ccc(N2CCN(c3ccccn3)CC2)c(NC(=O)c2ccc(Br)cc2)c1 [Compound F086-0619] | −0.11 | −0.82 | 64.289 | −0.20 | −1.83 | 57.556 | – | – | – | – |
| Nc1c(C(=O)N2CCCC2)sc(=S)n1Cc1ccccc1 [Compound F128-0041] | −0.05 | −0.34 | 65.885 | −0.15 | −1.37 | 58.95 | – | – | – | – |
| Nc1c(C(=O)N2CCCCC2)sc(=S)n1Cc1ccccc1 [Compound F128-0042] | −0.22 | −1.57 | 61.817 | −0.36 | −3.35 | 52.985 | – | – | – | – |
| Nc1c(C(=O)NCC2CCCO2)sc(=S)n1-c1ccc(Cl)cc1 (stereo not drawn) [Compound F128-0076] | −0.08 | −0.57 | 65.12 | −0.12 | −1.11 | 59.748 | – | – | – | – |
| CS(=O)(=O)Nc1cnc(N2CCC(C(N)=O)(N3CCCCC3)CC2)c(C(=O)O)c1 [Compound F293-0183] | −0.19 | −1.40 | 62.398 | −0.33 | −3.08 | 53.8 | – | – | – | – |
| O=C(O)c1cc(NS(=O)(=O)c2cc(F)ccc2F)cnc1N1CCC(N2CCCCC2)CC1 [Compound F293-0616] | −0.36 | −2.62 | 58.357 | −0.03 | −0.30 | 62.171 | – | – | – | – |
| CS(=O)(=O)Nc1cnc(N2CCC(CCN3CCOCC3)CC2)c(C(=O)O)c1 [Compound F293-0898] | −0.44 | −3.21 | 56.403 | −0.11 | −1.00 | 60.078 | – | – | – | – |
| CN(C)S(=O)(=O)Nc1cnc(N2CCC(CCN3CCCCC3)CC2)c(C(=O)O)c1 [Compound F293-0962] | −0.18 | −1.30 | 62.732 | −0.33 | −3.10 | 53.726 | – | – | – | – |
| CCN(Cc1ccccc1)c1ccc(NS(=O)(=O)c2ccc(OC)cc2)cc1C(=O)O [Compound F294-0003] | −0.48 | −3.46 | 55.595 | −0.10 | −0.96 | 60.198 | – | – | – | – |
| CN(C)S(=O)(=O)Nc1ccc(N2CCC(C(N)=O)(N3CCCCC3)CC2)c(C(=O)O)c1 [Compound F294-0183] | −0.33 | −2.37 | 59.182 | −0.30 | −2.83 | 54.549 | – | – | – | – |
| CN(C)S(=O)(=O)Nc1ccc(N2CCC(CCN3CCOCC3)CC2)c(C(=O)O)c1 [Compound F294-0900] | −0.19 | −1.40 | 62.393 | −0.24 | −2.23 | 56.357 | – | – | – | – |
| CN(C)S(=O)(=O)Nc1ccc(N2CCCC(CN3CCCC3)C2)c(C(=O)O)c1 (stereo not drawn) [Compound F294-0983] | −0.40 | −2.90 | 57.443 | −0.35 | −3.23 | 53.339 | – | – | – | – |
